The values that follow come from patent publication US6821981B2, “Azaheterocyclylmethyl derivatives of 2,3-dihydro-1,4-dioxino[2,3-f]-quinoline as 5-HT1A antagonists” (Wyeth, priority 2001, dated 2004).

Where a name gives a salt, the structure may show the parent alone. Read-outs that look alike come from different tables or passages of the source.

In general, melting point refers to the temperature of the solid-liquid transition. For orientation: IC50 means the concentration that gives 50% inhibition. A word on the Ki: it is the equilibrium dissociation constant of an inhibitor or competing ligand from its target.

Data set [1] deals with T1, cloned human 5-HT1A receptors (Homo sapiens, UniProt P08908).
T1 construct: expressed in transfected cells
T1 sequence (P08908 1-422): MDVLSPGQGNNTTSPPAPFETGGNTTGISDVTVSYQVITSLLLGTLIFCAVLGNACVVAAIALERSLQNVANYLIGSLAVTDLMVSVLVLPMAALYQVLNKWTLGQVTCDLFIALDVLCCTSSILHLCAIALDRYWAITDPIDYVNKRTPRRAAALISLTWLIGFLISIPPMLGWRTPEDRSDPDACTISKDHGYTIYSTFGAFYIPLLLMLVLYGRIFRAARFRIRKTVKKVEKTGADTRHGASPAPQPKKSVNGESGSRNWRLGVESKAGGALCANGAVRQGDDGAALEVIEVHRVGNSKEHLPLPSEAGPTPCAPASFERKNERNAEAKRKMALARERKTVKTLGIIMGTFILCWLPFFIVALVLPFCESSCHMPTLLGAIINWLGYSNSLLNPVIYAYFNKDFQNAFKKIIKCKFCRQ
In words: 35S-GTPγS binding assay, antagonist activity versus 8-OH-DPAT. The format is biochemical. Particulars: for 5-HT1A Function Imax (maximum inhibitory effect): value in parentheses after IC50. As for the experimental part:
Antagonist activity at 5-HT1A receptors was established by using a ^35S-GTPγS binding assay similar to that used by Lazareno and Birdsall (Br. J. Pharmacol. 109: 1120, 1993), in which the test compound's ability to affect the binding of ^35S-GTPγS to membranes containing cloned human 5-HT1A receptors was determined. Agonists produce an increase in binding whereas antagonists produce no increase but rather reverse the effects of the standard agonist 8-OH-DPAT. The test compound's maximum inhibitory effect is represented as the Imax, while its potency is defined by the IC50.

Data set [2] addresses T2, human 5-HT1A receptors (Homo sapiens, UniProt P08908).
T2 construct: expressed in transfected cells; host or cells: CHO cells
T2 sequence (P08908 1-422): T1 sequence (P08908 1-422)
In words: [3H] 8-OH-DPAT displacement from 5-HT1A receptor. The format is binding. An excerpt: High affinity for the serotonin 5-HT1A receptor was established by testing the claimed compound's ability to displace [^3H] 8-OH-DPAT (dipropylaminotetralin) from the 5-HT1A serotonin receptor following a modification of the procedure of Hall et al., J. Neurochem. 44, 1685 (1985) which utilizes CHO cells stably transfected with human 5-HT1A receptors.

[3] abbreviates: reversal of the effects of the standard agonist 8-OH-DPAT on 35S-GTPγS binding, read-out: 5-HT1A Function IC50.
[4] abbreviates: CHO cells stably transfected with human 5-HT1A receptors, [3H] 8-OH-DPAT, read-out: 5-HT1A Receptor Affinity KI.

Compound `Cc1ccc2c3c(ccc2n1)OCC(CN1CCC2(CC1)C(=O)NCN2c1ccccc1)O3` (stereo not shown) (as salt: fumarate) (hydrate or solvate) [Example 2, 8-{[8-Methyl-2,3-dihydro[1,4]dioxino[2,3-f]quinolin-2-yl]methyl}-1-phenyl-1,3,8-triazaspiro[4.5]decan-4-one] gave a melting point of 199 to 201 °C. Still for that read-out and setting: then `Cc1ccc2c3c(ccc2n1)OC[C@H](CN1CCC(n2c(=O)[nH]c4ccccc42)CC1)O3` (as salt: fumarate) (hydrate or solvate) [Example 3, 1-(1-{[8-Methyl-2,3-dihydro[1,4]dixino[2,3-f]quinlin-2-yl]methyl}piperidin-4-yl)-1,3-dihydro-2H-benzimidazol-2-one], with 194 to 196 °C; and `Cc1ccc2c3c(ccc2n1)OCC(CN1CCC(C(=O)c2ccc(F)cc2)CC1)O3` (stereo not shown) (as salt: fumarate) (hydrate or solvate) [Example 5, (4-Fluorophenyl)(1-{[8-methyl-2,3-dihydro[1,4]dioxino[2,3-f]quinolin-2-yl]methyl}-4-piperidinyl)methanone], with 206 to 207 °C.

`Cc1ccc2c3c(ccc2n1)OCC(CN1CCC(O)(c2cccc(C(F)(F)F)c2)CC1)O3` (stereo not shown) (as salt: fumarate) (hydrate or solvate) [Example 6, 1-{[8-Methyl-2,3-dihydro[1,4]dioxino[2,3-f]quinolin-2-yl]methyl}-4-[3-(trifluoromethyl)phenyl]-4-piperidinol] returned a melting point of 133 to 135 °C. On to `Cc1ccc2c3c(ccc2n1)OCC(CN1CC=C(c2ccccc2)CC1)O3` (stereo not shown) (as salt: fumarate) (hydrate or solvate) [Example 8, 8-Methyl-2-{[4-phenyl-3,6-dihydro-1(2H)-pyridinyl]methyl}-2,3-dihydro[1,4]dioxino[2,3-f]quinoline], for which the melting point lay in the range of 185 to 188 °C.

The compound `CCc1ccc2c3c(ccc2n1)OCC(CN1CCC2(CC1)C(=O)NCN2c1ccccc1)O3` (stereo not shown) (as salt: fumarate) (hydrate or solvate) [Example 9, 8-{[8-Ethyl-2,3-dihydro[1,4]dioxino[2,3-f]quinolin-2-yl]methyl}-1-phenyl-1,3,8-triazaspiro[4.5]decan-4-one] gave a melting point of 207 to 209 °C. On the same count and under the same terms, for `O=C1NCN(c2ccccc2)C12CCN(CC1COc3ccc4ncccc4c3O1)CC2` (stereo not shown) (as salt: fumarate) [Example 1, 8-[2,3-Dihydro[1,4]dioxino[2,3-f]quinolin-2-ylmethyl]-1-phenyl-1,3,8-triazaspiro[4.5]decan-4-one] the value was 170 °C.

In turn, `Cc1ccc2c3c(ccc2n1)OCC(CN1CCCCC1)O3` (stereo not shown) (as salt: hydrochloride) (hydrate or solvate) [Example 4, 8-Methyl-2-(piperidin-1-ylmethyl)-2,3-dihydro[1,4]dioxino[2,3-f]quinoline] returned a melting point of 278 to 280 °C.

`Cc1ccc2c3c(ccc2n1)OCC(CN1CCC(C#N)(c2ccccc2)CC1)O3` (stereo not shown) (as salt: salt) [Example 7, 1-{[8-Methyl-2,3-dihydro[1,4]dioxino[2,3-f]quinolin-2-yl]methyl}-4-phenyl-4-piperidinecarbonitrile] came in with a melting point of 185 to 187 °C. Regarding `O=C1NCN(c2ccccc2)C12CCN(CC1COc3ccc4ncccc4c3O1)CC2` (stereo not shown) [Example 1, 8-[2,3-Dihydro[1,4]dioxino[2,3-f]quinolin-2-ylmethyl]-1-phenyl-1,3,8-triazaspiro[4.5]decan-4-one], in data set [1] (setting [3]), the IC50 is 55 nM. For the same compound, the “5-HT1A Function Imax (maximum inhibitory effect)” value in data set [1] was 100. Moreover, the Ki in data set [2] (setting [4]) worked out at 1.44 nM. `Cc1ccc2c3c(ccc2n1)OCC(CN1CCC2(CC1)C(=O)NCN2c1ccccc1)O3` (stereo not shown) [Example 2, 8-{[8-Methyl-2,3-dihydro[1,4]dioxino[2,3-f]quinolin-2-yl]methyl}-1-phenyl-1,3,8-triazaspiro[4.5]decan-4-one]: the concentration for half-maximal inhibition (IC50) in data set [1] (setting [3]) is 64 nM. Also, the “5-HT1A Function Imax (maximum inhibitory effect)” value in data set [1] is 100. In data set [2] (setting [4]), the Ki is 1.79 nM. On the same counts, the results for `Cc1ccc2c3c(ccc2n1)OC[C@H](CN1CCC(n2c(=O)[nH]c4ccccc42)CC1)O3` [Example 3, 1-(1-{[8-Methyl-2,3-dihydro[1,4]dixino[2,3-f]quinlin-2-yl]methyl}piperidin-4-yl)-1,3-dihydro-2H-benzimidazol-2-one] are 66 nM, 85.0 and 3.08 nM. Take `Cc1ccc2c3c(ccc2n1)OCC(CN1CCCCC1)O3` (stereo not shown) [Example 4, 8-Methyl-2-(piperidin-1-ylmethyl)-2,3-dihydro[1,4]dioxino[2,3-f]quinoline]: the IC50 in data set [1] (setting [3]) is 483 nM. Further, the “5-HT1A Function Imax (maximum inhibitory effect)” value in data set [1] was 100. Besides, the inhibition constant Ki in data set [2] (setting [4]) stood at 51 nM. Take `Cc1ccc2c3c(ccc2n1)OCC(CN1CCC(C(=O)c2ccc(F)cc2)CC1)O3` (stereo not shown) [Example 5, (4-Fluorophenyl)(1-{[8-methyl-2,3-dihydro[1,4]dioxino[2,3-f]quinolin-2-yl]methyl}-4-piperidinyl)methanone]: in data set [2] (setting [4]), the inhibition constant Ki is 18.5 nM. On the same count and under the same terms, then `Cc1ccc2c3c(ccc2n1)OCC(CN1CCC(O)(c2cccc(C(F)(F)F)c2)CC1)O3` (stereo not shown) [Example 6, 1-{[8-Methyl-2,3-dihydro[1,4]dioxino[2,3-f]quinolin-2-yl]methyl}-4-[3-(trifluoromethyl)phenyl]-4-piperidinol], with 6.94 nM.

Turning to `Cc1ccc2c3c(ccc2n1)OCC(CN1CCC(C#N)(c2ccccc2)CC1)O3` (stereo not shown) [Example 7, 1-{[8-Methyl-2,3-dihydro[1,4]dioxino[2,3-f]quinolin-2-yl]methyl}-4-phenyl-4-piperidinecarbonitrile], in data set [1], the 50% inhibitory concentration (IC50) is 445 nM and the “5-HT1A Function Imax (maximum inhibitory effect)” value worked out at 50. In data set [2], this compound came in with a Ki of 76.1 nM. Take `Cc1ccc2c3c(ccc2n1)OCC(CN1CC=C(c2ccccc2)CC1)O3` (stereo not shown) [Example 8, 8-Methyl-2-{[4-phenyl-3,6-dihydro-1(2H)-pyridinyl]methyl}-2,3-dihydro[1,4]dioxino[2,3-f]quinoline]: in data set [2] (setting [4]), the Ki was found to be 7.91 nM.

Consider `CCc1ccc2c3c(ccc2n1)OCC(CN1CCC2(CC1)C(=O)NCN2c1ccccc1)O3` (stereo not shown) [Example 9, 8-{[8-Ethyl-2,3-dihydro[1,4]dioxino[2,3-f]quinolin-2-yl]methyl}-1-phenyl-1,3,8-triazaspiro[4.5]decan-4-one], for which the Ki in data set [2] (setting [4]) stood at 2.79 nM.
